According to patent US12681015B2, “Methods for predicting patient response to DMARDs” (Queen Mary University of London, priority 2019, dated 2026):

Columns and labels:
[1] = test system: inflammatory arthritis in mice; test: Inflammatory arthritis in mice treated with MTX plus L002 or MTX plus SB202190; assay type: in vivo; details: for anti-arthritic actions of MTX: MTX 25 mg/kg plus inhibitor 20 mg/kg i.p. days 3, 5 and 7; for weight loss, a marker of disease activity / joint inflammation / joint concentrations of LTB4 / joint damage / ability of MTX to regulate neutrophil trafficking to the inflamed joint: MTX plus inhibitor 20 mg/kg; for joint inflammation: 26-point clinical score; for joint concentrations of LTB4: day 8, LC-MS/MS; for joint damage: knee histology, day 8; for ability of MTX to regulate neutrophil trafficking to the inflamed joint: paws, day 8, flow cytometry
From the text: (§1) Plasma was collected by centrifugation and SPM were identified and quantified using LC-MS/MS based lipid mediator profiling (see methods for details). (A) sPLS-DA score plot of identified lipid mediator concentrations (B) Contribution for the top 10 differentially regulated mediators in principle component 1. Results are representative of n=6 volunteers per group with experiments conducted on two distinct occasions. (C-G) Inflammatory arthritis was initiated in mice by the administration of arthritogenic serum on days 0 and 2. […] Disease severity was assessed by measuring (C) disease activity using a 26-point clinical score, (D) joint histology using hematoxylin and eosin staining of knee sections collected 8 days post disease initiation, original magnification=×4 and (E) body weight. (F,G) Eight days post disease initiation joints were collected, (F) leukocytes were liberated from the paws and the number of neutrophils infiltrated into the paw was determined using flow cytometry and fluorescently labelled antibodies. (G) Lipid mediators were extracted and the concentrations of LTB4 were determined using liquid chromatography tandem-mass spectrometry. C, E, F are mean±SEM and G are percentage of vehicle of n=4 mice per group and experiments were conducted on two distinct occasions. Results for D are representative of n=8 mice per group. * p<0.05 vs Vehicle group for C and E using two-way ANOVA, for F one-way ANOVA, for G using one-sample t test. F=femur; m=meniscus; PF=pannus formation; T=tibia.
Plasma was obtained from peripheral blood of healthy volunteers, patients and mouse following centrifugation at 1500×g for 10 min at room temperature. Paws were collected and immediately transferred to liquid nitrogen prior to homogenization in 1 ml ice cold MeOH and homogenized using a glass dounce. All samples for LC-MS/MS-based profiling were extracted using solid-phase extraction columns as in Walker, M. E., Souza, P. R., Colas, R. A. & Dalli, J. “13-Series resolvins mediate the leukocyte-platelet actions of atorvastatin and pravastatin in inflammatory arthritis.” FASEB J 31, 3636-3648 (2017), the contents of which are incorporated herein by reference. Prior to sample extraction, deuterated internal standards, representing each region in the chromatographic analysis (500 pg each) were added to facilitate quantification. Samples were kept at −20° C. for a minimum of 45 min to allow protein precipitation. Supernatants were subjected to solid phase extraction, methyl formate fraction collected, brought to dryness and suspended in phase (methanol/water, 1:1, vol/vol) for injection on a Shimadzu LC-20AD HPLC and a Shimadzu SIL-20AC autoinjector, paired with a QTrap 5500 or QTrap 6500 plus (Sciex). An Agilent Poroshell 120 EC-C18 column (100 mm×4.6 mm×2.7 μm) was kept at 50° C. and mediators eluted using a mobile phase consisting of methanol/water/acetic acid of 20:80:0.01 (vol/vol/vol) that was ramped to 50:50:0.01 (vol/vol/vol) over 0.5 min and then to 80:20:0.01 (vol/vol/vol) from 2 min to 11 min, maintained till 14.5 min and then rapidly ramped to 98:2:0.01 (vol/vol/vol) for the next 0.1 min. This was subsequently maintained at 98:2:0.01 (vol/vol/vol) for 5.4 min, and the flow rate was maintained at 0.5 ml/min. QTrap 5500 or QTrap 6500 plus were operated using a multiple reaction monitoring method as in Walker, M. E., Souza, P. R., Colas, R. A. & Dalli, J. “13-Series resolvins mediate the leukocyte-platelet actions of atorvastatin and pravastatin in inflammatory arthritis.” FASEB J 31, 3636-3648 (2017), the contents of which are incorporated herein by reference. […]

[2] = test system: MTX-induced upregulation of SPM in human peripheral blood; test: Human whole blood incubated with L002 or SB202190, then MTX; plasma SPM by LC-MS/MS; assay type: cell-based; details: L002 2 μM or SB202190 5 μM, then MTX 100 nM, 37° C., 45 min
From the text: as §1
Plasma was obtained from peripheral blood of healthy volunteers, patients and mouse following centrifugation at 1500×g for 10 min at room temperature. Paws were collected and immediately transferred to liquid nitrogen prior to homogenization in 1 ml ice cold MeOH and homogenized using a glass dounce. All samples for LC-MS/MS-based profiling were extracted using solid-phase extraction columns as in Walker, M. E., Souza, P. R., Colas, R. A. & Dalli, J. “13-Series resolvins mediate the leukocyte-platelet actions of atorvastatin and pravastatin in inflammatory arthritis.” FASEB J 31, 3636-3648 (2017), the contents of which are incorporated herein by reference. Prior to sample extraction, deuterated internal standards, representing each region in the chromatographic analysis (500 pg each) were added to facilitate quantification. Samples were kept at −20° C. for a minimum of 45 min to allow protein precipitation. Supernatants were subjected to solid phase extraction, methyl formate fraction collected, brought to dryness and suspended in phase (methanol/water, 1:1, vol/vol) for injection on a Shimadzu LC-20AD HPLC and a Shimadzu SIL-20AC autoinjector, paired with a QTrap 5500 or QTrap 6500 plus (Sciex). […]

[3] = known side effect; cited from earlier work

Structure (SMILES) | anti-arthritic actions of MTX [1] | weight loss, a marker of disease activity [1] | joint inflammation [1] | joint concentrations of LTB4 [1] | joint damage [1] | ability of MTX to regulate neutrophil trafficking to the inflamed joint [1] | MTX-induced upregulation of SPM [2] | concentrations of several mediators including PD1, MaR2n-3 DPA and RvD1 [2] | High blood pressure, share of people [3]
COc1ccc(S(=O)(=O)ON=C2C=C(C)C(=O)C(C)=C2)cc1 [L002] | reversed | increase | increase | increase | increase | reversed | blocking | decreasing | –
Cc1oncc1C(=O)Nc1ccc(C(F)(F)F)cc1 [Leflunomide] | – | – | – | – | – | – | – | – | up to 10% of people
Oc1ccc(-c2nc(-c3ccncc3)c(-c3ccc(F)cc3)[nH]2)cc1 [SB202190] | reversed | increase | increase | increase | increase | reversed | blocking | decreasing | –
